How the values were obtained:
[1] = Visual solubility of free carbamathione in water and common organic solvents; assay type: physicochemical
Experimental: Initially, the solubility of free carbamathione was evaluated in water and in common organic solvents. The common organic solvents tested included dichloromethane (DCM), methanol, ethyl acetate, ethanol, acetonitrile, acetone, 2-propanol, and N,N-dimethylformamide.
For each solvent the solubility of carbamathione was assessed by weighing out 50 mg of carbamathione into a stoppered tube followed by the addition of 0.05 mL of the test solvent to the tube. The mixture underwent vigorous shaking for 1 minute, and was placed in a constant temperature device for 15 minutes at 25.0±0.5° C. If the carbamathione was not completely dissolved, vigorous shaking was repeated for 1 minute and then placed in a constant temperature device for an additional 15 minutes. If the carbamathione was not fully dissolved, additional solvent was added portion-wise until dissolution of carbamathione was observed. If complete dissolution was not observed, the solution was heated until the boiling point under stirring to verify the solubility at high temperature. The solvents were classified according to the visual solubility determined into the groups described in Table 6.

[2] = system: nucleus accumbens (NAc) and prefrontal cortex (PFC); conditions: intravenous administration, rats, Faiman et al., 2013; cited from earlier work
[3] = system: alcohol-preferring rats (P rats); experiment: 2-hour ethanol intake by adult male P rats after IP carbamathione; assay type: in vivo
Experimental: (§1) The efficacy of carbamathione in reducing ethanol intake of rats was assessed. Adult male alcohol-preferring rats (P rats) and high alcohol-drinking-1 (HAD1) rats (˜75 days of age at the start) were used in this study. These rats underwent an 8-week acquisition/acclimation period of concurrent free-choice access to 15% and 30% ethanol. Animals were initiated with 24-hour access, which was titrated down to 2 hours per day for 5 days (Monday-Friday)/week access. Ethanol access began at the beginning of the dark cycle (10:00 h) in a room maintained on a reverse dark-light cycle (10:00 h to 22:00 h lights out).
(§2) After the acquisition period, the animals underwent three weeks of testing. Four doses were tested: 0, 100, 200, and 400 mg/kg/day. Sterile isotonic (0.9% normal) saline with 0.25% Tween® 80 was used as the vehicle for all doses. Injection solutions were prepared approximately 1 hour prior to each administration.
(§3) The carbamathione solution was maintained at −20° C. until mixing the solutions each day. Adding the carboxyl-associated compound helped dissolve the carbamathione solid, which was pulverized by mortar and pestle with 50 μl Tween® 80, resulting in a pH of 3.5. […] Doses were calculated at 3 ml/kg to allow for injection volume of 1.5 ml per 500 g rat. […]
(§4) Data were analyzed by Dose, by Test Day, and 2-way mixed ANOVAs on each rat line, followed by Dunnett t-test planned comparisons.

[4] = system: high alcohol-drinking-1 (HAD1) rats; experiment: 2-hour ethanol intake by adult male HAD1 rats after IP carbamathione; assay type: in vivo; conditions: IP 100, 200, 400 mg/kg, saline with 0.25% Tween 80 vehicle
Experimental: as §1, §2, §3, §4

- Solubility at HT ([1]; 2-Propanol, heated until the boiling point): No
- Solubility at HT ([1]; Acetone, heated until the boiling point): No
- Solubility at HT ([1]; Acetonitrile, heated until the boiling point): No
- Solubility at HT ([1]; Dichloromethane, heated until the boiling point): No
- Solubility at HT ([1]; Ethanol, heated until the boiling point): No
- Solubility at HT ([1]; Ethyl Acetate, heated until the boiling point): No
- Solubility at HT ([1]; Methanol, heated until the boiling point): No
- Solubility at HT ([1]; N,N-Dimethylformamide, heated until the boiling point): No
- Solubility at HT ([1]; Tetrahydrofuran, heated until the boiling point): No
- Solubility at HT ([1]; Water, heated until the boiling point (100° C.)): Dissolved
- solubility in water ([1]; only at high temperature): sparingly soluble
- solubility in all of the common organic solvents ([1]; visual solubility): very slightly soluble
Compound: CCN(CC)C(=O)SCC(NC(=O)CCC(N)C(=O)O)C(=O)NCC(=O)O (stereo not drawn) [carbamathione, S—(N,N-diethylcarbamoyl)glutathione]
- GABA [2]: decreases
- dopamine (DA) [2]: increases
- glutamate (Glu) [2]: biphasic effect
- effect on 2-hour ethanol intake ([3]; IP 100, 200, 400 mg/kg, saline with 0.25% Tween 80 vehicle): modest positive effect
- 2 h ethanol intake, Dunnett's t-test for main effect of dose ([3]; highest dose (400 mg/kg/day IP)): significant effect
- effect on 2-hour ethanol intake [4]: no effect

— US20220153780A1, “SALT FORMS OF S-(N, N-DIETHYLCARBAMOYL)GLUTATHIONE” (Tonix Pharma Holdings Limited, priority 2019, published 2022)
